The results in this text go back to patent publication US20130078203A1, “CAROTENOID SUNSCREEN” (Promar AS, priority 2010, published 2013).

Values joined by “and” are separate entries in the source; they are usually repeats but may differ in a detail not shown here. Identical values can stand only once. Like-named read-outs stand apart in the source and are kept apart here.

Series [1] in a line: UV/VIS absorption maxima by HPLC with diode array detector. The note with it: carotenoids dissolved in MeOH, HPLC on Zorbax C18 column. The class given is physicochemical. As to the method: LC-MS analyses were performed on an Agilent Ion Trap SL mass spectrometer equipped with an Agilent 1100 series HPLC system. The HPLC system was equipped with a diode array detector (DAD) which recorded UV/VIS spectra in the range from 200-650 nm. Two HPLC protocols were used for the analysis in this work. A high throughput protocol for a fast quantitative determination of known carotenoids was used as follows; the carotenoids were eluted isocratically in MeOH for 5 min. A Zorbax rapid resolution SB RP C18 column with dimension 2.1*30 mm was used for the analyses. Column flow was kept at 0.4 mL/min and 10 μL extract was injected for each run. For detailed qualitative carotenoid separation a Zorbax SB RP C18 with dimension 2.1*150 mm was used. The carotenoids were eluted isocratically in MeOH/Acetonitrile (7:3) for 25 minutes. The column flow was 250 μl/min and 10 or 20 μL sample was injected depending on the concentration.

Series [2] in a line: In vitro skin model irradiation absorption (integrating sphere transmission spectra, Vitro-skin). The note with it: for absorption in the 375-490 nm range: Vitro-skin skin model; for absorption in the 375-490 nm range / effect of prolonged contact with the skin model on absorption: FIGS. 7A-C; for effect of prolonged contact with the skin model on absorption: 10, 15 or 20 minutes on Vitro-skin. It counts as physicochemical. As to the method:
The in vitro method of Springsteen was used (Springsteen et al., 1999, Analytica Chimica Acta, 380, p 155-164). Vitro-skin was used as the skin simulator and Miglyol (Miglyol 812F Neutraloel CHG.040906) or ethyl lactate (Sigma Aldrich) was used as the solvent. The tests were performed with a Varian Cary 300 Conc UV-Visible Spectrophotometer (with an integrating sphere). Sarcinaxanthin (prepared as described in Example 2) and the other carotenoids (Sigma Aldrich) were tested at various concentrations and immediately on application to the skin model or 10-20 minutes post-application.
FIGS. 7A-C show the irradiation absorption achieved by β-carotene (A), sarcinaxanthin (B) and zeaxanthin (C) at the concentrations indicated. The presented graphs also show the effects of the diluent on sarcinaxanthin absorption (FIG. 7B) and the effect of prolonged contact with the skin at 10, 15 or 20 minutes as indicated on the Figures. The results were compared to a conventional SPF 60 sun lotion and the use of diluent alone.

[3] abbreviates: side-by-side comparison, ethyl lactate as diluent, immediately vs after 15 minutes, FIGS. 8A and B.

In the case of `CC1=CCC(C/C=C(\C)CO)C(C)(C)C1/C=C/C(C)=C/C=C/C(C)=C/C=C/C=C(C)/C=C/C=C(C)/C=C/C1C(C)=CCC(C/C=C(\C)CO)C1(C)C` (stereo not shown) [Decaprenoxanthin], the “λmax (nm) in the HPLC eluent” value in series [1] was 414 nm and 438 nm and 467 nm.

In the case of `C=C1CCC(C/C=C(\C)CO[C@@H]2O[C@H](CO)[C@@H](O)[C@H](O)[C@H]2O)C(C)(C)C1/C=C/C(C)=C/C=C/C(C)=C/C=C/C=C(C)/C=C/C=C(C)/C=C/C1C(=C)CCC(C/C=C(\C)CO[C@@H]2O[C@H](CO)[C@@H](O)[C@H](O)[C@H]2O)C1(C)C` (stereo partly shown) [Sarcinaxanthin diglucoside], in series [1], the “λmax (nm) in the HPLC eluent” value was 414 nm and 438 nm and 467 nm.

As to `C=C1CC[C@H](C/C=C(\C)CO)C(C)(C)[C@@H]1/C=C/C(C)=C/C=C/C(C)=C/C=C/C=C(C)/C=C/C=C(C)/C=C/[C@@H]1C(=C)CC[C@H](C/C=C(\C)CO[C@@H]2O[C@H](CO)[C@@H](O)[C@H](O)[C@H]2O)C1(C)C` [Sarcinaxanthin monoglucoside], in series [1], the “λmax (nm) in the HPLC eluent” value was 414 nm and 438 nm and 467 nm.

On to `C=C1CC[C@H](C/C=C(\C)CO)C(C)(C)[C@@H]1/C=C/C(C)=C/C=C/C(C)=C/C=C/C=C(C)/C=C/C=C(C)/C=C/[C@@H]1C(=C)CC[C@H](C/C=C(\C)CO)C1(C)C` [sarcinaxanthin], for which, in series [2], the “absorption in the 375-490 nm range” value is on record as “strong absorption”. In series [2] (setting [3]), the “stability of absorption after 15 minutes on the skin model” value (“stability of absorption after 15 minutes” below) is given as “absorption appears unaffected by the prolonged contact”. For the same molecule, the “λmax (nm) in the HPLC eluent” value in series [1] is 414 nm and 438 nm and 467 nm.

Regarding `CC1=C(/C=C/C(C)=C/C=C/C(C)=C/C=C/C=C(C)/C=C/C=C(C)/C=C/C2=C(C)C[C@@H](O)CC2(C)C)C(C)(C)C[C@H](O)C1` [zeaxanthin], in series [2], the “stability of absorption after 15 minutes” value was “unstable and lose most of their absorption properties in the relevant range”; the “effect of prolonged contact with the skin model on absorption” value was “loss of absorption”; the “absorption in the 375-490 nm range” value is “only modest absorption”.

For the molecule `CC1=C(/C=C/C(C)=C/C=C/C(C)=C/C=C/C=C(C)/C=C/C=C(C)/C=C/C2=C(C)CCCC2(C)C)C(C)(C)CCC1` [β-carotene], in series [2], the “effect of prolonged contact with the skin model on absorption” value was “loss of absorption” and the “absorption in the 375-490 nm range” value is listed as “only modest absorption”. In addition, the “stability of absorption after 15 minutes” value in series [2] (setting [3]) was “unstable and lose most of their absorption properties in the relevant range”.

Turning to Lycopene, in series [1], the “λmax (nm) in the HPLC eluent” value was 445 nm and 470 nm and 501 nm.
